# Results reported in patent publication US8097431B2 (priority 2004, dated 2012).
# Key:
# LexA-DBD:PR-LBD:VP16 = target: T1, LexA-DBD:PR-LBD:VP16 (Homo sapiens, UniProt P06401); assay: yeast progesterone tripartite bioassay; format: cell-based; conditions: progesterone receptor tripartite
# T1 construct: expressed in transfected cells; host or cells: Saccharomyces cerevisiae W303 diploid yARUP16 transformed with pARUP32 (yARUP49)
# T1 sequence (P06401 with tags, fused parts or gaps): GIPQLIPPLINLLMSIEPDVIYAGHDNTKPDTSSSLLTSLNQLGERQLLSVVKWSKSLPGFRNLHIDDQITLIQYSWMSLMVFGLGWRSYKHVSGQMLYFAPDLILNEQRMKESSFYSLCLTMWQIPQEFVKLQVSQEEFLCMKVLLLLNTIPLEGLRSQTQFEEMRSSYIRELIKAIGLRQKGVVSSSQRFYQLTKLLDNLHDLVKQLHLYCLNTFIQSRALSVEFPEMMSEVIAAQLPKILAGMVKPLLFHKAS
# Procedure: Yeast were inoculated from a plate into synthetic media lacking leucine, uracil and histidine supplemented with 2% dextrose. After 18 hr incubation at 30° C., cells were washed with synthetic media lacking leucine, uracil and histidine supplemented with glycerol and resuspended in glycerol media to an absorbance at 600 nm of 0.03. Cells were grown for 4 hr then 50 μL of cells were added to each well of a 96-well plate. 50 μl of steroid in phosphate buffered saline 0.5% BSA. Cells were grown at 30° C. in a shaking water bath for 18 hr. To detect β-galactosidase activity, 25 μl of cells and 25 μl of Beta-Glo (Promega, Madison Wis.) were transferred to a luminescent 96-well plate (Fisher, Pittsburgh, Pa.). After 30 min incubation at room temperature, the reaction mixture was read using Lumimark (Bio-Rad, Hercules, Calif.).
# [1] = target: T2, progesterone tripartite system (Homo sapiens, UniProt P06401); assay: progesterone bioactivity in serum of women on birth control (progesterone tripartite system); format: in vivo; conditions: women on fourth generation progestin
# T2 construct: expressed in transfected cells; host or cells: Saccharomyces cerevisiae W303 diploid yARUP16 transformed with pARUP32 (yARUP49)
# T2 sequence (P06401 with tags, fused parts or gaps): T1 sequence (P06401 with tags, fused parts or gaps)
# Procedure: Serum samples were pre-treated by diluting with an equal volume of 0.9 mg/mL K2EDTA, (150 μl of serum was added to 150 μl of 0.9 mg/mL K2 EDTA), vortexed briefly and heated for 5 min at 72 C. Pre-treated serum was added to yeast expressing the androgen or progesterone tripartite, prepared as follows.
# Yeast were inoculated from a frozen stock into synthetic media lacking leucine, uracil, and histidine supplemented with 2% dextrose. […] Twenty-five microliters of mid-log yeast were added to each well of a 384-well plate using a, BioMek 2000 (Beckman-Coulter). Serum samples were diluted with an equal volume of 0.9 mg/mL K2EDTA, (150 μL of serum was added to 150 μL of 0.9 mg/mL K2 EDTA), vortexed briefly and heated for 5 min at 72° C. Ten microliters of pre-treated sample was added to the plate. Ten microliters of serially diluted compound in H2O was incubated with 25 μL of yeast (Thermolabsystems). The plate was covered with Aeroseal sealing film (Research Products International, Palatine Ill.), and placed on a plate shaker for 5 min and the plate was incubated for 17-18 hr at 28° C. in a humidified incubator. After overnight incubation, the plate was shaken for 5 min. […] After about 2-hr incubation at room temperature, the β-galactosidase in the reaction mixture was determined using Luminskan luminometer (Thermolabsystems). […]
structure (smiles),measurement,setting,value
"CC(=O)[C@H]1CC[C@H]2[C@@H]3CCC4=CC(=O)CC[C@]4(C)[C@H]3CC[C@]12C [Progesterone, progesterone]",levels detectable by this method,LexA-DBD:PR-LBD:VP16,"1000-100,000 pg/ml"
C[C@]12CCC(=O)C=C1[C@@H]1C[C@@H]1[C@H]1[C@@H]3[C@@H]4C[C@@H]4[C@@]4(CCC(=O)O4)[C@@]3(C)CC[C@@H]12 [drospireone],serum progesterone levels of women on birth control,[1],lower
